Experiments:
[1] = human, serum
[2] = human, serum, 4383 h
[3] = human
[4] = human, serum; remark: listed apart in the source
[5] = human; remark: listed apart in the source
[6] = Comments (NB not yet translated). [column 'COMMENTAIRES' in source]; details: human
[7] = human; remark: listed apart in the source
[8] = human; remark: listed apart in the source
[9] = Highest frequency of moderate liver toxicity observed during clinical trials, expressed as a percentage. [column '% BIOL' in source]; details: human
[10] = human; remark: listed apart in the source
[11] = Times to onset, minimal and maximal, observed in the indexed observations. [column 'DELAI' in source]; details: human
[12] = human; remark: listed apart in the source
[13] = human; remark: listed apart in the source
[14] = human; remark: listed apart in the source
[15] = human; remark: listed apart in the source
[16] = human; remark: listed apart in the source
[17] = Highest frequency of acute liver toxicity observed during clinical trials, expressed as a percentage. [column '% AIGUE' in source]; details: human
[18] = Proposed mechanism(s) of liver damage. [column 'MEC' in source]; details: human
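For Hepatotoxicity (association with vascular disease) in this document: count of indexed literature references reporting vascular liver injury in humans, e.g. peliosis hepatitis, hepatic veno-occlusive disease or Budd-Chiari syndrome.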
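For Hepatotoxicity (benign tumour) in this document: value is a count of indexed literature references citing a benign tumour confirmed by histopathology.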
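For Hepatotoxicity (choleostasis) in this document: human cholestatic liver injury, shown by histopathology or by peak ALT or AST elevation over alkaline phosphatase ratio below 2, value counts indexed literature reports.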
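For Hepatotoxicity (chronic liver disease) in this document: chronic liver injury confirmed by histopathology or persistently raised serum aminotransferase activity beyond 6 months, value given as the count of indexed literature references.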
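For Hepatotoxicity (cirrhosis) in this document: value is a count of indexed literature references reporting cirrhosis confirmed by histopathology.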
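For Hepatotoxicity (cytolytic) in this document: human cytolytic liver injury, shown by histopathology or by a ratio above 5 of peak ALT or AST elevation to alkaline phosphatase elevation, value counts indexed references.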
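For Hepatotoxicity (granulomatous hepatitis) in this document: value is a count of indexed literature references reporting granulomatous liver disease confirmed by histopathology.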
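For Hepatotoxicity (malignant tumour) in this document: malignant tumour confirmed by histopathology, value gives the count of indexed literature references reporting it.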
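For Hepatotoxicity (severe hepatitis) in this document: human clinical data: severe hepatitis, meaning potentially life-threatening liver failure or clinically observed cases, the value counts how many indexed literature references report it.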
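For Hepatotoxicity (steatosis) in this document: steatosis confirmed by histopathology, value is the count of indexed references.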

Molecule: CCCCNC(=O)NS(=O)(=O)c1ccc(N)cc1 [CARBUTAMIDE]
- Hepatotoxicity (moderate) [1]: 1
- Hepatotoxicity (chronic liver disease) [2]: 0
- Hepatotoxicity (steatosis) [3]: 0
- Hepatotoxicity (acute) [4]: 5
- Hepatotoxicity (benign tumour) [5]: 0
- Hepatotoxicity (comment) [6]: RC/METAHEXAMIDE
- Hepatotoxicity (malignant tumour) [7]: 0
- Hepatotoxicity (association with vascular disease) [8]: 0
- Hepatotoxicity (moderate) [9]: 30%
- Hepatotoxicity (severe hepatitis) [10]: 3
- Hepatotoxicity (time to onset) [11]: 2 weeks - 4 weeks
- Hepatotoxicity (choleostasis) [12]: 0
- Hepatotoxicity (cirrhosis) [13]: 0
- Hepatotoxicity (granulomatous hepatitis) [14]: 0
- Hepatotoxicity (cytolytic) [15]: 1
- Hepatotoxicity (animal toxicity known) [16]: yes
- Hepatotoxicity (acute) [17]: 1.5%

Molecule: CCC[C@@H]1C[C@@H](C(=O)N[C@@H]([C@H]2O[C@H](SC)[C@H](O)[C@@H](O)[C@H]2O)[C@H](C)Cl)N(C)C1 [CLINDAMYCIN]
- Hepatotoxicity (moderate) [1]: 15
- Hepatotoxicity (chronic liver disease) [2]: 1
- Hepatotoxicity (steatosis) [3]: 0
- Hepatotoxicity (acute) [4]: 5
- Hepatotoxicity (benign tumour) [5]: 0
- Hepatotoxicity (comment) [6]: #CBP
- Hepatotoxicity (malignant tumour) [7]: 0
- Hepatotoxicity (moderate) [9]: 52%
- Hepatotoxicity (severe hepatitis) [10]: 0
- Hepatotoxicity (time to onset) [11]: 2 days - 17 days
- Hepatotoxicity (choleostasis) [12]: 1
- Hepatotoxicity (cirrhosis) [13]: 0
- Hepatotoxicity (granulomatous hepatitis) [14]: 1
- Hepatotoxicity (cytolytic) [15]: 2
- Hepatotoxicity (animal toxicity known) [16]: yes
- Hepatotoxicity (acute) [17]: 0%

Molecule: CCOC(=O)C(C)(C)Oc1ccc(Cl)cc1 [CLOFIBRATE]
- Hepatotoxicity (moderate) [1]: 4
- Hepatotoxicity (chronic liver disease) [2]: 0
- Hepatotoxicity (steatosis) [3]: 1
- Hepatotoxicity (acute) [4]: 3
- Hepatotoxicity (benign tumour) [5]: 1
- Hepatotoxicity (comment) [6]: RC/FENOFIBRATE
- Hepatotoxicity (malignant tumour) [7]: 0
- Hepatotoxicity (association with vascular disease) [8]: 0
- Hepatotoxicity (moderate) [9]: 19.7%
- Hepatotoxicity (severe hepatitis) [10]: 0
- Hepatotoxicity (time to onset) [11]: 2 months - 7 years
- Hepatotoxicity (choleostasis) [12]: 1
- Hepatotoxicity (cirrhosis) [13]: 0
- Hepatotoxicity (granulomatous hepatitis) [14]: 1
- Hepatotoxicity (cytolytic) [15]: 2
- Hepatotoxicity (animal toxicity known) [16]: yes
- Hepatotoxicity (acute) [17]: 0%

Molecule: Nc1ccc(/N=N/c2ccccc2)c(N)n1 [PHENAZOPYRIDINE]
- Hepatotoxicity (moderate) [1]: 4
- Hepatotoxicity (chronic liver disease) [2]: 0
- Hepatotoxicity (steatosis) [3]: 0
- Hepatotoxicity (acute) [4]: 2
- Hepatotoxicity (benign tumour) [5]: 0
- Hepatotoxicity (malignant tumour) [7]: 0
- Hepatotoxicity (association with vascular disease) [8]: 0
- Hepatotoxicity (moderate) [9]: 0%
- Hepatotoxicity (severe hepatitis) [10]: 0
- Hepatotoxicity (time to onset) [11]: 1 week
- Hepatotoxicity (choleostasis) [12]: 2
- Hepatotoxicity (cirrhosis) [13]: 0
- Hepatotoxicity (granulomatous hepatitis) [14]: 0
- Hepatotoxicity (mechanism) [18]: Allergic, Toxic Metabolite
- Hepatotoxicity (cytolytic) [15]: 0
- Hepatotoxicity (animal toxicity known) [16]: yes
- Hepatotoxicity (acute) [17]: 0%

Molecule: CO[C@H](C(=O)[C@@H](O)[C@@H](C)O)[C@@H]1Cc2cc3cc(O[C@H]4C[C@@H](O[C@H]5C[C@@H](O)[C@H](O)[C@@H](C)O5)[C@H](O)[C@@H](C)O4)c(C)c(O)c3c(O)c2C(=O)[C@H]1O[C@H]1C[C@@H](O[C@H]2C[C@@H](O[C@H]3C[C@](C)(O)[C@H](O)[C@@H](C)O3)[C@@H](O)[C@@H](C)O2)[C@H](O)[C@@H](C)O1 [PLICAMYCIN]
- Hepatotoxicity (moderate) [1]: 24
- Hepatotoxicity (chronic liver disease) [2]: 0
- Hepatotoxicity (steatosis) [3]: 1
- Hepatotoxicity (acute) [4]: 6
- Hepatotoxicity (benign tumour) [5]: 0
- Hepatotoxicity (malignant tumour) [7]: 0
- Hepatotoxicity (association with vascular disease) [8]: 0
- Hepatotoxicity (moderate) [9]: 100%
- Hepatotoxicity (severe hepatitis) [10]: 3
- Hepatotoxicity (time to onset) [11]: 4 days
- Hepatotoxicity (choleostasis) [12]: 0
- Hepatotoxicity (cirrhosis) [13]: 0
- Hepatotoxicity (granulomatous hepatitis) [14]: 0
- Hepatotoxicity (mechanism) [18]: Dose-dependant
- Hepatotoxicity (cytolytic) [15]: 6
- Hepatotoxicity (animal toxicity known) [16]: yes
- Hepatotoxicity (acute) [17]: 0%

Molecule: COc1cc(NC(C)CCCN)c2ncccc2c1 (stereo unspecified) [PRIMAQUINE]
- Hepatotoxicity (moderate) [1]: 0
- Hepatotoxicity (chronic liver disease) [2]: 0
- Hepatotoxicity (steatosis) [3]: 0
- Hepatotoxicity (acute) [4]: 1
- Hepatotoxicity (benign tumour) [5]: 0
- Hepatotoxicity (malignant tumour) [7]: 0
- Hepatotoxicity (association with vascular disease) [8]: 0
- Hepatotoxicity (moderate) [9]: 0%
- Hepatotoxicity (severe hepatitis) [10]: 0
- Hepatotoxicity (time to onset) [11]: 2 days
- Hepatotoxicity (choleostasis) [12]: 0
- Hepatotoxicity (cirrhosis) [13]: 0
- Hepatotoxicity (granulomatous hepatitis) [14]: 0
- Hepatotoxicity (mechanism) [18]: Overdose
- Hepatotoxicity (cytolytic) [15]: 1
- Hepatotoxicity (animal toxicity known) [16]: yes
- Hepatotoxicity (acute) [17]: 0%

Molecule: Cc1ccc(C(=O)c2cc(O)c(O)c([N+](=O)[O-])c2)cc1 [TOLCAPONE]
- Hepatotoxicity (moderate) [1]: 6
- Hepatotoxicity (chronic liver disease) [2]: 0
- Hepatotoxicity (steatosis) [3]: 0
- Hepatotoxicity (acute) [4]: 6
- Hepatotoxicity (benign tumour) [5]: 0
- Hepatotoxicity (malignant tumour) [7]: 0
- Hepatotoxicity (association with vascular disease) [8]: 0
- Hepatotoxicity (moderate) ([9]; Liver): 14.3%
- Hepatotoxicity (severe hepatitis) ([10]; Liver): 5
- Hepatotoxicity (time to onset) [11]: 1 month - 6 months
- Hepatotoxicity (choleostasis) ([12]; Liver): 0
- Hepatotoxicity (cirrhosis) [13]: 0
- Hepatotoxicity (granulomatous hepatitis) ([14]; Liver): 0
- Hepatotoxicity (mechanism) ([18]; Liver): Mitochondrial toxicity
- Hepatotoxicity (cytolytic) ([15]; Liver): 6
- Hepatotoxicity (animal toxicity known) [16]: yes
- Hepatotoxicity (acute) ([17]; Liver): 0.7%

Molecule: ClC=C(Cl)Cl [TRICHLOROETHYLENE]
- Hepatotoxicity (moderate) [1]: 1
- Hepatotoxicity (chronic liver disease) [2]: 0
- Hepatotoxicity (steatosis) [3]: 0
- Hepatotoxicity (acute) [4]: 14
- Hepatotoxicity (benign tumour) [5]: 0
- Hepatotoxicity (malignant tumour) [7]: 0
- Hepatotoxicity (association with vascular disease) [8]: 0
- Hepatotoxicity (moderate) [9]: 0%
- Hepatotoxicity (severe hepatitis) [10]: 14
- Hepatotoxicity (time to onset) [11]: 1 day - 6 weeks
- Hepatotoxicity (choleostasis) [12]: 0
- Hepatotoxicity (cirrhosis) [13]: 2
- Hepatotoxicity (granulomatous hepatitis) [14]: 0
- Hepatotoxicity (mechanism) [18]: Toxic Metabolite
- Hepatotoxicity (cytolytic) [15]: 14
- Hepatotoxicity (animal toxicity known) [16]: yes
- Hepatotoxicity (acute) [17]: 0%

Molecule: BLEOMYCIN
- Hepatotoxicity (moderate) [1]: 1
- Hepatotoxicity (chronic liver disease) [2]: 0
- Hepatotoxicity (steatosis) [3]: 0
- Hepatotoxicity (acute) [4]: 0
- Hepatotoxicity (benign tumour) [5]: 0
- Hepatotoxicity (comment) [6]: HYPERBILIRUBINEMIE
- Hepatotoxicity (malignant tumour) [7]: 0
- Hepatotoxicity (association with vascular disease) [8]: 0
- Hepatotoxicity (moderate) [9]: 0%
- Hepatotoxicity (severe hepatitis) [10]: 0
- Hepatotoxicity (choleostasis) [12]: 0
- Hepatotoxicity (cirrhosis) [13]: 0
- Hepatotoxicity (granulomatous hepatitis) [14]: 0
- Hepatotoxicity (cytolytic) [15]: 0
- Hepatotoxicity (animal toxicity known) [16]: yes
- Hepatotoxicity (acute) [17]: 0%

— ChEMBL document CHEMBL3137667, “[Drug-induced liver injury; fourteenth updated edition of the bibliographic database of liver injuries and related drugs]” (Gastroenterol Clin Biol, 2004)
